Consider 17 compounds from patent US20090318527A1, “INDOLE COMPOUNDS AND METHODS OF USE THEREOF” (priority 2008, published 2009).

The test system of series [1] is mice. Put plainly: Appetite suppression studies in food-deprived mice. The series is classed as in vivo. Conditions: mice food-deprived 18 hours, i.p.; for % Reduction from control (food consumption): p <0.05 versus saline control. As for the experimental part: Mice were deprived of food, but not water, for 18 hours. They were then injected i.p. with test compounds dissolved in 0.9% NaCl containing 1 mg per ml ascorbic acid for protection against oxidation. Each mouse was placed in an individual cage for 30 minutes and then presented with a small petri dish containing a gel made from gelatin, powdered milk and sucrose. The dish was weighed at zero time and at 15-minute intervals for the next hour in order to quantitate food consumption. Controls were injected with saline-ascorbic acid; ±fenfluramine was used as an active control.

For series [2], the system named is mice. The series can be described thus: Serotonin-induced scratching in mice (animal model for OCD). The series is classed as in vivo, male Swiss-Webster mice. The protocol: The subjects were male Swiss-Webster mice, 4-6 weeks old, weighing 25-45 g. Mice were housed 5 per cage, given free access to standard mouse food and water except during experiments, and maintained in a temperature-controlled room (70° F.). Serotonin and all test drugs were made up with ascorbic acid to protect against oxidation. Two mice, one a control, the other experimental, were tested each time. Each mouse was separately placed into a plexiglas box.
Mice were injected subcutaneously between the shoulder blades with 0.1 ml of serotonin, 0.4 mg per ml in 0.15 M saline plus ascorbic acid, 1 mg/ml. […] The cumulative number of scratches with a hind leg was recorded at 5 minute intervals for 30 minutes. One saline injected control and one test animal were tested together in each assay.

For the next series, the target named is T1, human 5-HT2A receptor (Homo sapiens, UniProt P28223).
T1 construct: expressed in transfected cells; host or cells: HEK 293
T1 sequence (P28223 whole entry): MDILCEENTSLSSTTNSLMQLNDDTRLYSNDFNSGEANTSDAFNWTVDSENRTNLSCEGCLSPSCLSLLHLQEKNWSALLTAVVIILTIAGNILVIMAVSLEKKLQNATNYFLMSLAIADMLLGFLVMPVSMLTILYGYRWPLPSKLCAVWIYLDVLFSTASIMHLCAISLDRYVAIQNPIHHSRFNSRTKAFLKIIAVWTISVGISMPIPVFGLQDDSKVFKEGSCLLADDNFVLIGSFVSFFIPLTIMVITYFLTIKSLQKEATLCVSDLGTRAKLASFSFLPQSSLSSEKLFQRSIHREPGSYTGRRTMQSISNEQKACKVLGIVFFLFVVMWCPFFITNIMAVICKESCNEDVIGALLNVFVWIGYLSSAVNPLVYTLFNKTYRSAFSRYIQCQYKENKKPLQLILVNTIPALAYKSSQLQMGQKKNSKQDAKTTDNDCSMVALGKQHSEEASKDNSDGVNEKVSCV
Put plainly: Intracellular calcium flux assay, HEK 293 cells stably expressing 5-HT2A.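 For all read-outs here: fluorescent calcium dye read on FLIPR Tetra, peak signal above baseline within 60 s after compound addition, seven concentrations spanning 10 pM to 10 µM.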 The series is classed as cell-based. The following applies: for Emax at 10 µM: HEK293, read-out: 5-HT2A functional activity (N/A class). Background: Calcium flux is commonly read through the fluorescence of an indicator in the cells.

The target in another series is T2, human 5-HT2B receptor (Homo sapiens, UniProt P41595).
T2 construct: expressed in transfected cells; host or cells: HEK 293
T2 sequence (P41595 whole entry): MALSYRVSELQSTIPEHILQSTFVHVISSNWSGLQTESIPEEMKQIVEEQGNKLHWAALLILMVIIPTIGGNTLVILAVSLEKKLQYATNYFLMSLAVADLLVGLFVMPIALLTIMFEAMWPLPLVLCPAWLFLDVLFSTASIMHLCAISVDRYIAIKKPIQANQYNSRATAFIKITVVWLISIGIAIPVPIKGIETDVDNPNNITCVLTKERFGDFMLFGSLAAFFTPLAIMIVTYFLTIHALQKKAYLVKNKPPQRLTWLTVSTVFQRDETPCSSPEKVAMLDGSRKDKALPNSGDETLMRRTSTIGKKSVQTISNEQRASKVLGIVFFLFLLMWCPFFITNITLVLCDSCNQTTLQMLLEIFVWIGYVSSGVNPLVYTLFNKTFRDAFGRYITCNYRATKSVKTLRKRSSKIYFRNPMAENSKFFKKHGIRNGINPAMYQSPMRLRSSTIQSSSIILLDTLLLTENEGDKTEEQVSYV
The series can be described thus: Intracellular calcium flux assay, HEK 293 cells stably expressing 5-HT2B.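 Note: calcium dye fluorescence read on a FLIPR Tetra, peak signal above baseline within 60 s after compound addition, seven-point concentration series from 10 pM up to 10 µM.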 The series is classed as cell-based. Conditions: HEK293; at 10,000 nM; read-out: 5-HT2B functional activity (N/A class).

Series [3] deals with T3, 5-HT2C (Homo sapiens, UniProt P28335).
T3 sequence (P28335 33-458): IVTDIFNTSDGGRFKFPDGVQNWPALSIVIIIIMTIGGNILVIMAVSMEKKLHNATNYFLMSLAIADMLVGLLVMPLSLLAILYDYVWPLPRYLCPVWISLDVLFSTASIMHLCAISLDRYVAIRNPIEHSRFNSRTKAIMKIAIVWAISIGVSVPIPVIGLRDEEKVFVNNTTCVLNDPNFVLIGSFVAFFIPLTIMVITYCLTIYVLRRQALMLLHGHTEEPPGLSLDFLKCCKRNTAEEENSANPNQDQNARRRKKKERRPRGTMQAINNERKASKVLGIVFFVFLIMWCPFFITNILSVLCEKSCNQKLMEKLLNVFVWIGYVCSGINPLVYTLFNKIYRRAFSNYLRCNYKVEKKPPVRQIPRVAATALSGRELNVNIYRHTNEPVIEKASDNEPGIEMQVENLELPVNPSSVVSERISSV
The series can be described thus: Intracellular calcium flux assay, HEK 293 cells stably expressing 5-HT2C.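 For all read-outs here: calcium dye fluorescence read on FLIPR Tetra as peak signal above baseline within 60 s of compound addition, seven concentrations from 10 pM to 10 µM, each in triplicate.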 The series is classed as cell-based. More on the design: expressed in transfected cells; host or cells: HEK 293. Conditions: for Emax: HEK293, read-out: 5-HT2C efficacy as percentage of the maximal 5-HT response ± SD, at least three independent experiments, entries marked a (42, 50, 51, 52) single measurements; for EC50: at least three independent experiments, entries marked a (42, 50, 51, 52) single measurements, read-out: 5-HT2C mean EC50 ± SD.

For series [4], the target named is T3, 5-HT2C. Conditions: cited from earlier work.
The mark [5] stands for this setting: i.p. 5 minutes before serotonin s.c., 3 mg/kg.
Setting [6] is: i.p., 3 mg/kg, p <0.05 versus saline control (*p = 0.09).
Setting [7] is: i.p. 5 minutes before serotonin s.c., 10 mg/kg.
Where [8] appears, read: i.p., 10 mg/kg, p <0.05 versus saline control.

As for `CCNC(C)Cc1cccc(C(F)(F)F)c1` (racemic) [(±)-Fenfluramine, reference compound], the “Mean food consumption 60 min. after injection: g (±SEM) Compound” value in the series on mice [1] (5 mg/kg) is on record as 0.90 (.04) g; in the series on mice [1] (10 mg/kg), 0.41 (.11) g. Moreover, the “% Reduction from control (food consumption)” value was found to be 39% in the series with mice [1] (5 mg/kg) and 69% with mice [1] (10 mg/kg). The “Average Number of Scratches 30 min. after injection (±SEM)” value (“Average Number … (±SEM)” for short) with mice [2] (setting [5]) amounted to 22.8 ± 11.7; in the series with mice [2] (oral gavage, 10 mg/kg) it was 35 ± 25.8. Also, the “% Reduction from control (scratches)” value in the series with mice [2] (setting [6]) was determined as 95%; in the series on mice [2] (oral gavage, 10 mg/kg, p < 0.05) it was 94%.

By EC50 is commonly meant the midpoint of the concentration-response curve. Turning to `COc1ccc(F)c2c1c(CCN(C)C)cn2C` [Compound 22, 2-(7-Fluoro-4-methoxy-1-methyl-1H-indol-3-yl)-N,N-dimethylethanamine], the “5-HT2A response as percentage of the maximal 5-HT response @ 10,000” value at human 5-HT2A receptor (at 10,000 nM, EC50 not reached) is reported as “(21 ± 6 @ 10,000) %”. Also, the EC50 is more than 10000 nM on human 5-HT2A receptor (calcium flux, at least three independent experiments, each in triplicate, read-out: 5-HT2A mean EC50 ± SD) and 9.4 ± 4.9 nM at 5-HT2C [3]. Moreover, the Emax at 10 µM at human 5-HT2B receptor is less than 10%. In addition, in the series on mice [1] (10 mg/kg), the “Mean food consumption 60 min. after injection: g (±SEM) Compound” value is reported as 0.15 (0.1) g. The “% Reduction from control (food consumption)” value in the series on mice [1] (10 mg/kg) is listed as 77%. Also, the “Average Number … (±SEM)” value amounted to 4.7 ± 4.7 in the series on mice [2] (setting [7]) and 102 ± 50.8 in the series with mice [2] (oral gavage, 20 mg/kg). The “% Reduction from control (scratches)” value in the series on mice [2] (setting [8]) was found to be 98.5%; in the series on mice [2] (oral gavage, 20 mg/kg, p < 0.05), 83%. On 5-HT2C [3], the Emax turned out to be 82%.

Broadly, the melting point is the temperature of the solid-liquid transition. With `COc1c(F)ccc2c1c(CCN(C)C)cn2C.Cl` [Compound 40, 2-(5-Fluoro-4-methoxy-1-methyl-1H-indol-3-yl)-N,N-dimethylethanamine hydrochloride], the melting point fell in the range of 183.6 to 186.8 °C. In addition, on human 5-HT2A receptor (at 10,000 nM), the Emax at 10 µM is less than 10%. Further, the Emax at 10 µM at human 5-HT2B receptor was less than 10%. Also, in the series on mice [2] (setting [5]), the “Average Number … (±SEM)” value amounted to 8.2 ± 5.1. Also, the “% Reduction from control (scratches)” value with mice [2] (setting [6]) is on record as 97* %. In addition, on 5-HT2C [3], the Emax stood at 72% and the EC50 stood at 3.1 ± 1.2 nM.

Consider `CCn1cc(CCN(C)C)c2c(OC)c(F)ccc21.Cl` [Compound 41, 2-(1-Ethyl-5-fluoro-4-methoxy-1H-indol-3-yl)-N,N-dimethylethanamine hydrochloride], for which the melting point was 149 to 150 °C. For the same compound, the Emax at 10 µM at human 5-HT2A receptor (at 10,000 nM) was less than 10%. Further, at human 5-HT2B receptor, the Emax at 10 µM was less than 10%. Besides, at 5-HT2C [3], the Emax was found to be 37% and the EC50 amounted to 1.4 ± 0.19 nM.

For `CCCn1cc(CCN(C)C)c2c(OC)c(F)ccc21.Cl` [Compound 42, 2-(5-Fluoro-4-methoxy-1-propyl-1H-indol-3-yl)-N,N-dimethylethanamine hydrochloride], the melting point lay within 111 to 113 °C. Also, the Emax at 10 µM at human 5-HT2A receptor (at 10,000 nM) is less than 10%. Also, the Emax at 10 µM at human 5-HT2B receptor was less than 10%. Besides, at 5-HT2C [3], the Emax was 34% and the EC50 worked out at 741 nM.

`CN(C)CCc1cn(C)c2c(F)ccc(OCc3ccccc3)c12` [Compound 50, 4-Benzyloxy-3-(2-dimethylaminoethyl)-7-fluoro-1-methyl-1H-indole] displayed a melting point of 60 to 62 °C. Further, on human 5-HT2A receptor (at 10,000 nM), the Emax at 10 µM was less than 10%. In addition, the Emax at 10 µM on human 5-HT2B receptor was less than 10%. For the same compound, at 5-HT2C [3], the Emax worked out at 81% and the EC50 was 282 nM.

Regarding `CN(C)CCc1cn(C)c2cc(F)cc(OCc3ccccc3)c12` [Compound 51, 4-Benzyloxy-3-(2-dimethylaminoethyl)-6-fluoro-1-methyl-1H-indole], the melting point lay in the range of 79 to 80 °C. Besides, at human 5-HT2A receptor (at 10,000 nM), the Emax at 10 µM was less than 10%. For the same compound, the Emax at 10 µM at human 5-HT2B receptor is less than 10%. Besides, at 5-HT2C [3], the Emax amounted to 99% and the EC50 stood at 233 nM.

With `CN(C)CCc1cn(C)c2ccc(F)c(OCc3ccccc3)c12.Cl` [Compound 52, 4-Benzyloxy-3-(2-dimethylaminoethyl)-5-fluoro-1-methyl-1H-indole hydrochloride], the melting point fell in the range of 139 to 141 °C. On human 5-HT2A receptor (at 10,000 nM), the Emax at 10 µM was less than 10%. Moreover, the Emax at 10 µM at human 5-HT2B receptor was less than 10%. Also, at 5-HT2C [3], the Emax was determined as 79% and the EC50 was determined as 44 nM.

In turn, `COc1c(F)cc(F)c2c1c(CCN(C)C)cn2C.Cl` [Compound 58, 2-(5,7-Difluoro-4-methoxy-1-methyl-1H-indol-3-yl)-N,N-dimethylethanamine hydrochloride] gave a melting point of 185 to 189 °C. The Emax at 10 µM on human 5-HT2A receptor (at 10,000 nM) is less than 10%. On human 5-HT2B receptor, the Emax at 10 µM is less than 10%. Also, at 5-HT2C [3], the Emax turned out to be 51% and the EC50 is 2.4 ± 0.44 nM.

Compound `CCOc1c(F)ccc2c1c(CCN(C)C)cn2CC.Cl` [Compound 60, 2-(4-Ethoxy-1-ethyl-5-fluoro-1H-indol-3-yl)-N,N-dimethylethanamine hydrochloride] came in with a melting point of 130 to 132 °C. Moreover, the Emax at 10 µM on human 5-HT2A receptor (at 10,000 nM) is less than 10%. Besides, the Emax at 10 µM at human 5-HT2B receptor was less than 10%. Moreover, at 5-HT2C [3], the Emax was determined as 69% and the EC50 amounted to 4.2 ± 0.94 nM.

For the compound `CCCn1cc(CCN(C)C)c2c(OCC)c(F)ccc21.Cl` [Compound 61, 2-(4-Ethoxy-5-fluoro-1-propyl-1H-indol-3-yl)-N,N-dimethylethanamine hydrochloride], the melting point is 141 to 143 °C. In addition, the Emax at 10 µM on human 5-HT2A receptor (at 10,000 nM) is less than 10%. Moreover, the Emax at 10 µM on human 5-HT2B receptor is less than 10%. In addition, on 5-HT2C [3], the Emax was found to be 38% and the EC50 worked out at 13 ± 1.51 nM.

`CN(C)CCc1cn(C)c2c(F)ccc(F)c12.Cl` [Compound 65, 2-(4,7-Difluoro-1-methyl-1H-indol-3-yl)-N,N-dimethylethanamine hydrochloride] yielded a melting point of 209 to 210 °C. The Emax at 10 µM on human 5-HT2A receptor (at 10,000 nM) was less than 10%. For the same compound, at human 5-HT2B receptor, the Emax at 10 µM is less than 10%. On 5-HT2C [3], the Emax was 41% and the EC50 is 16 ± 3.46 nM.

`COc1ccc(Br)c2c1c(CCN(C)C)cn2C.Cl` [Compound 73, 2-(7-Bromo-4-methoxy-1-methyl-1H-indol-3-yl)-N,N-dimethylethanamine hydrochloride]: the melting point lay in the range of 235 to 236 °C. Also, the Emax at 10 µM on human 5-HT2A receptor (at 10,000 nM) was less than 10%. Also, the Emax at 10 µM at human 5-HT2B receptor is less than 10%. For the same compound, on 5-HT2C [3], the Emax came to 48% and the 50% effective concentration (EC50) was found to be 274 ± 57.7 nM.

Regarding `CN(C)CCc1cn(C)c2cc(O)c(F)cc12` [Compound 82, 3-[2-(Dimethylamino-ethyl)]-5-fluoro-1-methyl-1H-indol-6-ol], the melting point is 165 to 169 °C. The Emax at 10 µM at human 5-HT2A receptor (at 10,000 nM) was less than 10%. Moreover, at human 5-HT2B receptor, the Emax at 10 µM was less than 10%. Also, on 5-HT2C [3], the Emax was 83% and the EC50 came out at 589 ± 546 nM.

The compound `CCCn1cc(CCN(C)C)c2cc(F)c(O)cc21` [Compound 84, 3-[2-(Dimethylamino-ethyl)]-5-fluoro-1-propyl-1H-indol-6-ol] yielded a melting point of 157 to 159 °C. Also, the Emax at 10 µM at human 5-HT2A receptor (at 10,000 nM) is less than 10%. Besides, the Emax at 10 µM at human 5-HT2B receptor was less than 10%. Besides, on 5-HT2C [3], the Emax stood at 70% and the EC50 was 507 ± 314 nM.

As for `CNCCC(Oc1ccc(C(F)(F)F)cc1)c1ccccc1` (stereo not drawn) [Fluoxetine, reference compound], in the series on mice [2] (setting [7]), the “Average Number … (±SEM)” value is 154.8 ± 105.2. The “% Reduction from control (scratches)” value with mice [2] (setting [8]) is given as 63.5%.

Take `C[C@H](N)Cn1ccc2cc(F)c(Cl)cc21` [Ro 60-0175]: the “times more active at 5-HT2C as compared to 5-HT2A” value at 5-HT2C [4] (5-HT2C versus 5-HT2A) is reported as 25 times. In addition, the “selectivity over 5-HT2B receptors” value on 5-HT2C [4] (5-HT2C versus 5-HT2B) was “not selective”.
